In US5312831A, “Urethanes and ureas that induce cytokine production” (American Cyanamid Company, priority 1993, dated 1994):
Entries after “also recorded” stand apart in the source; their conditions may differ.

How the values were obtained:
[1] = tested on: neutrophils; assay: Neutrophil recovery in 5-FU treated mice; type: in vivo, mouse; details: for Neutrophils/cu. mm.: day 7 post 5FU 150 mg/kg, 10 mice/group, vehicle 157 ± 52
Description: (§1) Circulating Neutrophil Assay--Mice are treated with 5-FU (150 mg/kg) and beginning 24 hrs. later, treated daily with the test compound. Mice are bled daily by retroorbital puncture in heparinized capillary tubes. Circulating WBC counts are determined by Coulter counter. Blood smears are stained with Wright-Geimsa solution and the percentage circulating neutrophils determined by differential counting under a microscope.
(§2) 5-Fluorouracil (5-FU) Induced Neutropenia In Mice--Mice are treated ip with 150 mg/kg of the chemotherapy agent 5-FU which induces a severe loss of neutrophils in the peripheral blood 5-6 days later. Twenty-four hrs. after the dose, treatment with the test compounds is initiated. The effect of the test compounds on recovery of neutrophil progenitor cells in the bone marrow is determined by the CFU-GM assay. The recovery of circulating neutrophils is followed by differential staining of the peripheral blood.
*Data from 10 mice/group on day 7 post treatment with 150 mg/kg of 5FU.
Beginning 24 hrs. after 5FU dose, mice were treated daily with test
compound at concentrations indicated. Neutrophil count for normal mice (n
**Mice treated with 5FU and vehicle only.

[2] = tested on: GCSF; assay: Serum GCSF in 5-FU treated monkeys; type: in vivo, cynomolgous monkeys
Description: (§3) Groups of 3 cynomolgous monkeys are treated with 5FU at 125 mg/kg and
(§4) beginning 24 hours later treated with test compound s.c. at 0.05 mg/kg.
(§5) The data reported are from sera taken 4 hours after test compound

[3] = tested on: bone marrow CFU-GM; assay: Bone marrow CFU-GM in 5-FU treated mice; type: in vivo, mouse
Description: Colony forming assays Granulocyte-Macrophage (CFU-GM)--Mice are treated with 150 mg/kg of 5-Fu and treatment with test compound begins 24 hrs. later. On consecutive days, mice are killed by cervical dislocation and the femurs removed under sterile conditions. Femurs are flushed with 1 ml of ice cold medium (Iscove's supplemented with 20% FCS, 1% penicillin-streptomycin, 1% glutamine and 5×10^-5 M 2-mercaptoethanol). Bone marrow cells (5×10^5) are then plated in 12×75 mm tissue culture plates in 3 ml of warm ararose (3%) in Iscove's medium with 100 Units/ml of recombinant mouse GM-CSF purchased from Genzyme (Boston, Mass.). Plates are incubated for 7 days at 37° C. in 5% CO2. After 7 days, colonies of 50 cells or greater are enumerated under a dissecting microscope. 5-Fluorouracil (5-FU) Induced Neutropenia In Mice--Mice are treated ip with 150 mg/kg of the chemotherapy agent 5-FU which induces a severe loss of neutrophils in the peripheral blood 5-6 days later. Twenty-four hrs. after the dose, treatment with the test compounds is initiated. The effect of the test compounds on recovery of neutrophil progenitor cells in the bone marrow is determined by the CFU-GM assay. […]

[4] = tested on: neutrophils; assay: Oral dosing: neutrophil recovery in 5-FU treated mice; type: in vivo, mouse; details: for Neutrophils/cu. mm.: day 6 after 5-FU 150 mg/kg, 0 dose 178 ± 64
Description: as §1, §2
Groups of 5 mice are treated with 150 mg/kg of 5-FU. One day later, daily oral dosing with test compounds begins and continues for 10 days. […]

[5] = tested on: CSF; assay: Serum colony stimulating factor (CSF) assay in mice; type: in vivo, mouse; details: serum 4 hours after injection
Description: Colony forming assays Granulocyte-Macrophage (CFU-GM)--Mice are treated with 150 mg/kg of 5-Fu and treatment with test compound begins 24 hrs. later. On consecutive days, mice are killed by cervical dislocation and the femurs removed under sterile conditions. Femurs are flushed with 1 ml of ice cold medium (Iscove's supplemented with 20% FCS, 1% penicillin-streptomycin, 1% glutamine and 5×10^-5 M 2-mercaptoethanol). Bone marrow cells (5×10^5) are then plated in 12×75 mm tissue culture plates in 3 ml of warm ararose (3%) in Iscove's medium with 100 Units/ml of recombinant mouse GM-CSF purchased from Genzyme (Boston, Mass.). Plates are incubated for 7 days at 37° C. in 5% CO2. After 7 days, colonies of 50 cells or greater are enumerated under a dissecting microscope.
Bone marrow cells are prepared as described above for the CFU-GM assay. The cells are then incubated in soft agar with an 0.3% final concentration of serum taken from mice 4 hours after injection with test compounds. After 7 days of incubation at 37° C., the number of colony forming (CFU) cells per 10^5 plated bone marrow cells is determined by counting colonies of more than 50 cells under a dissecting microscope. The data are reported as CFU/10^5 bone marrow cells.

[6] = tested on: IL-6; assay: Serum IL-6 in 5-FU treated monkeys; type: in vivo, cynomolgous monkeys
Description: as §3, §4, §5

[7] = 0.05 mg/kg s.c., 5FU 125 mg/kg, sera 4 hours after treatment, 5-FU only 0

CCCCCCC(=O)N[C@@H](C(=O)O)[C@@H](C)OC(=O)N[C@@H](CCC[C@@H](N)C(=O)O)C(=O)N[C@H](C)C(=O)O [Example 28, [R-(R*,R*)]-N-(R)-6-carboxy-N^2-[[2-carboxy-1-methyl-2-[(1-oxoheptyl)amino]ethoxy]carbonyl]-L-lysyl]-D-Alanine]
Neutrophils/cu. mm. ([1]; 1.56 μg/kg daily): 722 ± 199 /cu. mm.
Neutrophils/cu. mm. ([1]; 3.12 μg/kg daily): 424 ± 115 /cu. mm.
Neutrophils/cu. mm. ([1]; 6.25 μg/kg daily): 758 ± 249 /cu. mm.
Neutrophils/cu. mm. ([1]; 12.50 μg/kg daily): 1314 ± 267 /cu. mm.
Neutrophils/cu. mm. ([1]; 25.00 μg/kg daily): 1804 ± 408 /cu. mm.
Neutrophils/cu. mm. ([1]; 50.00 μg/kg daily): 1716 ± 284 /cu. mm.
Neutrophils/cu. mm. ([1]; 100.00 μg/kg daily): 2613 ± 364 /cu. mm.
neutrophil recovery in 5-FU treated mice (in words) ([1]; mouse, in vivo): enhances the recovery of peripheral blood neutrophils; also recorded: induce neutrophil recovery in 5-FU treated mice
Serum GCSF [2, 7]: 3962 ± 2178 pg/mL
GCSF production in the serum of 5-FU treated primates (in words) ([2]; monkey, in vivo): induces IL-6 and GCSF production
CFU-GM/femur ([3]; 0.1 mg/kg daily s.c., day 3 after 5FU 150 mg/kg, normal 30184 ± 3677, 5-FU only 805 ± 512): 6055 ± 534 CFU-GM/femur
CFU-GM in the bone marrow (in words) ([3]; 5-FU treated mice): increase of CFU-GM
Neutrophils/cu. mm. ([4]; 0.1 mg/kg daily oral): 81 ± 35 /cu. mm
Neutrophils/cu. mm. ([4]; 1 mg/kg daily oral): 765 ± 209 /cu. mm
Neutrophils/cu. mm. ([4]; 10 mg/kg daily oral): 1391 ± 350 /cu. mm
neutrophil recovery in 5-FU treated mice when given orally (in words) ([4]; oral): active in accelerating neutrophil recovery
CSF production, CFU/100,000 Bone Marrow Cells ([5]; 0.1 mg/kg): 95 ± 16 CFU/100,000 Bone Marrow Cells
CSF production, CFU/100,000 Bone Marrow Cells ([5]; 1.0 mg/kg): 101 ± 8 CFU/100,000 Bone Marrow Cells
Serum IL-6 [6, 7]: 2579 ± 318 Units/ml
IL-6 production in the serum of 5-FU treated primates (in words) ([6]; monkey, in vivo): induces IL-6 and GCSF production
